The supplement of paper PMC10307832

Legend:
Test in all cases: relative viability (nuclei count vs DMSO), 5 days (fraction); higher = more cells survive
[1] = compound: C1=CC2=C(C=CC(=C2)C=C3C(=O)NC(=NCC4=CC=CS4)S3)N=C1 [RO-3306] + NC(=O)Nc1cc(-c2cccc(F)c2)sc1C(=O)N[C@H]1CCCNC1 [AZD7762] (partner 0.2 µM)
How it was run: (§1)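 Lung cancer cell lines were seeded in 1536-well plates and dosed by pin tool the next day, with either a single drug or a fixed anchor-drug dose combined with five library-drug doses (not always all listed) spaced in √10 steps. Five days later, one step fixed the cells and stained their nuclei (final 0.05% Triton X-100, 1% formaldehyde, 1 ug/ml Hoechst), and nuclei were counted on 4× images. Relative viability is the nuclei count in treated wells divided by the count in vehicle wells, and each value is the median of duplicate plates.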

[2] = compound: C1=CC2=C(C=CC(=C2)C=C3C(=O)NC(=NCC4=CC=CS4)S3)N=C1 [RO-3306] + COc1cccc2cc(-c3nc([C@H]4CC[C@H](C(=O)O)CC4)n4ncnc(N)c34)[nH]c12 [OSI-027] (partner 0.5 µM)
How it was run: as §1

[3] = compound: O=S(=O)(c1ccccc1)N(CC(F)(F)F)c1ccc(C(O)(C(F)(F)F)C(F)(F)F)cc1 + COc1cc2c(Oc3ccc(NC(=O)C4(C(=O)Nc5ccc(F)cc5)CC4)cc3F)ccnc2cc1OCCCN1CCOCC1 [Foretinib] (partner 0.25 µM)
How it was run: as §1

[4] = compound: O=S(=O)(c1ccccc1)N(CC(F)(F)F)c1ccc(C(O)(C(F)(F)F)C(F)(F)F)cc1 + Cc1cc(Nc2cc(N3CCN(C)CC3)nc(Sc3ccc(NC(=O)C4CC4)cc3)n2)n[nH]1 [Tozasertib] (partner 0.1 µM)
How it was run: as §1

Cell Line | relative viability ([1]; first compound 0.01 µM) | relative viability ([1]; first compound 0.03162 µM) | relative viability ([1]; first compound 0.1 µM) | relative viability ([1]; first compound 0.3162 µM) | relative viability ([1]; first compound 1 µM) | relative viability ([2]; first compound 0.01 µM) | relative viability ([2]; first compound 0.03162 µM) | relative viability ([2]; first compound 0.1 µM) | relative viability ([2]; first compound 0.3162 µM) | relative viability ([2]; first compound 1 µM) | relative viability ([3]; first compound 0.8 µM) | relative viability ([3]; first compound 2.53 µM) | relative viability ([3]; first compound 8 µM) | relative viability ([4]; first compound 0.8 µM) | relative viability ([4]; first compound 2.53 µM) | relative viability ([4]; first compound 8 µM)
PC-14 | 0.28 | 0.32 | 0.285 | 0.426 | 0.251 | 0.895 | 0.609 | 0.76 | 1.37 | 0.86 | 1.11 | 1.09 | 0.988 | 0.559 | 0.445 | 0.34
NCI-H1648 | 0.809 |  | 0.697 | 0.643 | 0.625 | 0.247 |  | 0.289 | 0.249 | 0.241 |  |  |  | 0.408 | 0.293 | 0.339
NCI-H1437 | 1.2 | 1.08 | 1.11 | 1.15 | 0.882 | 0.936 | 0.814 | 0.825 | 0.912 | 0.878 | 1.35 | 1.09 | 0.979 | 0.411 | 0.337 | 0.275
201T | 0.617 | 0.651 | 0.59 | 0.511 | 0.595 | 0.586 | 0.729 | 0.709 | 0.779 | 0.672 | 1.1 | 0.968 | 0.92 | 0.927 | 0.854 | 0.863
EBC-1 |  |  |  |  |  |  |  |  |  |  | 0.0993 | 0.114 | 0.126 |  |  | 
LCLC-97TM1 | 0.258 |  | 0.197 | 0.31 | 0.26 | 0.53 | 0.391 | 0.476 | 0.549 | 0.454 | 0.914 | 0.928 | 0.805 | 0.218 | 0.21 | 0.156
NCI-H522 | 0.914 | 0.734 | 0.914 | 0.89 | 0.843 | 0.68 | 0.695 | 0.622 | 0.711 | 0.715 |  |  |  | 0.567 | 0.488 | 0.615
NCI-H1395 | 0.44 | 0.42 | 0.374 | 0.374 | 0.427 | 0.598 | 0.674 | 0.502 | 0.618 | 0.612 | 0.924 | 0.862 | 0.994 | 0.737 | 0.671 | 0.82
LU99A | 0.394 | 0.325 | 0.483 | 0.319 | 0.338 | 0.296 | 0.284 | 0.297 | 0.317 | 0.274 | 0.785 | 0.773 | 0.725 | 0.235 | 0.238 | 0.253
Calu-6 |  |  |  |  |  |  |  |  |  |  | 0.822 | 0.809 | 0.768 |  |  | 
